Like-named read-outs stand apart in the source and are kept apart here.
Tests used:
human Gal-1 (hGal-1) = human Gal-1 (hGal-1) (Homo sapiens (Human), UniProt P09382); assay: competitive binding assay: biotinylated hGal-1 binding to microplate-adsorbed asialofetuin (ASF); conditions: Table 15; read-out: IC50 (Galectin-1 inhibition)
Method in brief: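 Biotinylated human Gal-1 (300-1000 ng/mL) competes with serially diluted compound for binding to ASF-coated plates, 3 h at 4° C. Bound protein detected with streptavidin-peroxidase and ABTS substrate (spectrophotometric). IC50 given as mean of several measurements.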

human Gal-3 (hGal-3) = human Gal-3 (hGal-3) (Homo sapiens (Human), UniProt P17931); assay: competitive binding assay: biotinylated hGal-3 binding to microplate-adsorbed asialofetuin (ASF)
Method in brief: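 Peroxidase activity developed with ABTS measures the biotinylated hGal-3 remaining on the asialofetuin-coated surface after competition with test compounds. Incubation ran 3 h at 4 °C, followed by 1 h with streptavidin-peroxidase at 80 ng/mL.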

[1] = Gal-3 inhibition, binding of biotinylated hGal-3 to ASF, mean values, read-out: IC50
[2] = Table 9, 2-OMe-Gal inhibitors, read-out: IC50 (Gal-3 inhibition)
[3] = Table 10, 2-OMe-Gal inhibitors, read-out: IC50 (Gal-3 inhibition)

human Gal-1 (hGal-1), sequence (P09382 whole entry): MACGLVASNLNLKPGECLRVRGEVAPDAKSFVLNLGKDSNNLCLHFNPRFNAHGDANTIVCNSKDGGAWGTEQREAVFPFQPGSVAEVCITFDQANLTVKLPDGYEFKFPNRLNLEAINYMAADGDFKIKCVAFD
human Gal-3 (hGal-3), sequence (P17931 whole entry): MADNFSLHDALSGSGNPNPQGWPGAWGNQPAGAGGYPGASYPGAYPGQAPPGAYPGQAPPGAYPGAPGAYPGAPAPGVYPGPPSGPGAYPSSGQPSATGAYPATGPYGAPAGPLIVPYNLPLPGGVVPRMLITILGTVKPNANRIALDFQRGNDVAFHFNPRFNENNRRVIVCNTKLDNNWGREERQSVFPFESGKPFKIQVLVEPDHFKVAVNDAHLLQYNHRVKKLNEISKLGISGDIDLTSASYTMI

| IC50 (human Gal-1 (hGal-1)) [µM] | IC50 (human Gal-3 (hGal-3); [1]) [µM] | IC50 (human Gal-3 (hGal-3); [3]) [µM] | SMILES | IC50 (human Gal-3 (hGal-3); [2]) [µM] |
| --- | --- | --- | --- | --- |
| 0.16 |  | 0.06 | CCc1c([C@@H](S[C@@H]2O[C@H](CO)[C@H](O)[C@H](n3cc(-c4cc(F)c(F)c(F)c4)nn3)[C@H]2OC)C2(O)CCC(F)(F)CC2)noc1C1CC1 [Example 2.44.130R.I.] |  |
| 5.65 | 1.85 |  | CCc1c([C@H](S[C@@H]2O[C@H](CO)[C@H](O)[C@H](n3cc(-c4cc(F)c(F)c(F)c4)nn3)[C@H]2O)C2(O)CCC(F)(F)CC2)noc1C1CC1 [Example 2.44.130S., (2S,3R,4S,5R,6R)-2-(((S)-(5-Cyclopropyl-4-ethylisoxazol-3-yl)(4,4-difluoro-1-hydroxycyclohexyl)methyl)thio)-6-(hydroxymethyl)-4-(4-(3,4,5-trifluorophenyl)-1H-1,2,3-triazol-1-yl)tetrahydro-2H-pyran-3,5-diol] |  |
| 0.1 |  | 0.13 | CO[C@@H]1[C@@H](n2cc(-c3cc(F)c(F)c(F)c3)nn2)[C@@H](O)[C@@H](CO)O[C@H]1S[C@H](c1noc(C2CC2)c1CC(C)C)C1(O)CCC(F)(F)CC1 [Example 2.44.131R.I., (2R,3R,4S,5R,6S)-6-(((R)-(5-Cyclopropyl-4-isobutylisoxazol-3-yl)(4,4-difluoro-1-hydroxycyclohexyl)methyl)thio)-2-(hydroxymethyl)-5-methoxy-4-(4-(3,4,5-trifluorophenyl)-1H-1,2,3-triazol-1-yl)tetrahydro-2H-pyran-3-ol] |  |
| 13.7 | 9.74 |  | CC(C)Cc1c([C@H](S[C@@H]2O[C@H](CO)[C@H](O)[C@H](n3cc(-c4cc(F)c(F)c(F)c4)nn3)[C@H]2O)C2(O)CCC(F)(F)CC2)noc1C1CC1 [Example 2.44.131S., (2S,3R,4S,5R,6R)-2-(((S)-(5-Cyclopropyl-4-isobutylisoxazol-3-yl)(4,4-difluoro-1-hydroxycyclohexyl)methyl)thio)-6-(hydroxymethyl)-4-(4-(3,4,5-trifluorophenyl)-1H-1,2,3-triazol-1-yl)tetrahydro-2H-pyran-3,5-diol] |  |
| 0.16 | 0.1 |  | CC(C)c1cccnc1C(S[C@@H]1O[C@H](CO)[C@H](O)[C@H](n2cc(-c3cc(F)c(F)c(F)c3)nn2)[C@H]1O)C1(O)CCC(F)(F)CC1 (stereo partly drawn) [Example 2.44.132., (2S,3R,4S,5R,6R)-2-(((4,4-Difluoro-1-hydroxycyclohexyl)(3-isopropylpyridin-2-yl)methyl)thio)-6-(hydroxymethyl)-4-(4-(3,4,5-trifluorophenyl)-1H-1,2,3-triazol-1-yl)tetrahydro-2H-pyran-3,5-diol] |  |
| 0.05 | 0.05 |  | CC(C)c1cccnc1[C@@H](S[C@@H]1O[C@H](CO)[C@H](O)[C@H](n2cc(-c3cc(F)c(F)c(F)c3)nn2)[C@H]1O)C1(O)CCC(F)(F)CC1 [Example 2.44.132R., (2S,3R,4S,5R,6R)-2-(((R)-(4,4-Difluoro-1-hydroxycyclohexyl)(3-isopropylpyridin-2-yl)methyl)thio)-6-(hydroxymethyl)-4-(4-(3,4,5-trifluorophenyl)-1H-1,2,3-triazol-1-yl)tetrahydro-2H-pyran-3,5-diol] |  |

More lines, now with the values behind:

| SMILES | IC50 (human Gal-1 (hGal-1)) [µM] | IC50 (human Gal-3 (hGal-3); [1]) [µM] | IC50 (human Gal-3 (hGal-3); [3]) [µM] | IC50 (human Gal-3 (hGal-3); [2]) [µM] |
| --- | --- | --- | --- | --- |
| Cc1cccnc1[C@@H](S[C@@H]1O[C@H](CO)[C@H](O)[C@H](n2cc(-c3cc(F)c(F)c(F)c3)nn2)[C@H]1O)C1(O)CCC(F)(F)CC1 [Example 2.44.126R., (2S,3R,4S,5R,6R)-2-(((R)-(4,4-Difluoro-1-hydroxycyclohexyl)(3-methylpyridin-2-yl)methyl)thio)-6-(hydroxymethyl)-4-(4-(3,4,5-trifluorophenyl)-1H-1,2,3-triazol-1-yl)tetrahydro-2H-pyran-3,5-diol] | 0.3 | 0.04 |  |  |
| CO[C@@H]1[C@@H](n2cc(-c3cc(F)c(F)c(F)c3)nn2)[C@@H](O)[C@@H](CO)O[C@H]1S[C@H](c1ncccc1C)C1(O)CCC(F)(F)CC1 [Example 2.44.126R.I., (2R,3R,4S,5R,6S)-6-(((R)-(4,4-Difluoro-1-hydroxycyclohexyl)(3-methylpyridin-2-yl)methyl)thio)-2-(hydroxymethyl)-5-methoxy-4-(4-(3,4,5-trifluorophenyl)-1H-1,2,3-triazol-1-yl)tetrahydro-2H-pyran-3-ol] | 0.68 |  |  | 0.07 |
| CCO[C@@H]1[C@@H](n2cc(-c3cc(F)c(F)c(F)c3)nn2)[C@@H](O)[C@@H](CO)O[C@H]1S[C@H](c1ncccc1C)C1(O)CCC(F)(F)CC1 [Example 2.44.126R.II., (2R,3R,4S,5R,6S)-6-(((R)-(4,4-Difluoro-1-hydroxycyclohexyl)(3-methylpyridin-2-yl)methyl)thio)-5-ethoxy-2-(hydroxymethyl)-4-(4-(3,4,5-trifluorophenyl)-1H-1,2,3-triazol-1-yl)tetrahydro-2H-pyran-3-ol] | 0.87 | 0.11 |  |  |
| Cc1cccnc1[C@H](S[C@@H]1O[C@H](CO)[C@H](O)[C@H](n2cc(-c3cc(F)c(F)c(F)c3)nn2)[C@H]1O)C1(O)CCC(F)(F)CC1 [Example 2.44.126S., (2S,3R,4S,5R,6R)-2-(((S)-(4,4-Difluoro-1-hydroxycyclohexyl)(3-methylpyridin-2-yl)methyl)thio)-6-(hydroxymethyl)-4-(4-(3,4,5-trifluorophenyl)-1H-1,2,3-triazol-1-yl)tetrahydro-2H-pyran-3,5-diol] | 26.5 | 3.35 |  |  |
| CCO[C@@H]1[C@@H](n2cc(-c3cc(F)c(F)c(F)c3)nn2)[C@@H](O)[C@@H](CO)O[C@H]1S[C@@H](c1ncccc1C)C1(O)CCC(F)(F)CC1 [Example 2.44.126S.II., (2R,3R,4S,5R,6S)-6-(((S)-(4,4-Difluoro-1-hydroxycyclohexyl)(3-methylpyridin-2-yl)methyl)thio)-5-ethoxy-2-(hydroxymethyl)-4-(4-(3,4,5-trifluorophenyl)-1H-1,2,3-triazol-1-yl)tetrahydro-2H-pyran-3-ol] | 24.3 | 0.98 |  |  |
| Cc1nccnc1C(S[C@@H]1O[C@H](CO)[C@H](O)[C@H](n2cc(-c3cc(F)c(F)c(F)c3)nn2)[C@H]1O)C1(O)CCC(F)(F)CC1 (stereo partly drawn) [Example 2.44.129., (2S,3R,4S,5R,6R)-2-(((4,4-Difluoro-1-hydroxycyclohexyl)(3-methylpyrazin-2-yl)methyl)thio)-6-(hydroxymethyl)-4-(4-(3,4,5-trifluorophenyl)-1H-1,2,3-triazol-1-yl)tetrahydro-2H-pyran-3,5-diol] | 0.35 | 0.09 |  |  |
| Cc1nccnc1[C@@H](S[C@@H]1O[C@H](CO)[C@H](O)[C@H](n2cc(-c3cc(F)c(F)c(F)c3)nn2)[C@H]1O)C1(O)CCC(F)(F)CC1 [Example 2.44.129R., (2S,3R,4S,5R,6R)-2-(((R)-(4,4-Difluoro-1-hydroxycyclohexyl)(3-methylpyrazin-2-yl)methyl)thio)-6-(hydroxymethyl)-4-(4-(3,4,5-trifluorophenyl)-1H-1,2,3-triazol-1-yl)tetrahydro-2H-pyran-3,5-diol] | 0.2 | 0.03 |  |  |
| CO[C@@H]1[C@@H](n2cc(-c3cc(F)c(F)c(F)c3)nn2)[C@@H](O)[C@@H](CO)O[C@H]1S[C@H](c1nccnc1C)C1(O)CCC(F)(F)CC1 [Example 2.44.129R.I., (2R,3R,4S,5R,6S)-6-(((R)-(4,4-Difluoro-1-hydroxycyclohexyl)(3-methylpyrazin-2-yl)methyl)thio)-2-(hydroxymethyl)-5-methoxy-4-(4-(3,4,5-trifluorophenyl)-1H-1,2,3-triazol-1-yl)tetrahydro-2H-pyran-3-ol [1,3-di-deoxy-1-((4,4-difluoro-1-hydroxy-cyclohexan-1-yl)-(3-(-methyl)pyrazin-2-yl)methyl-(R)-thio)-2-O-methyl-3-[4-(3,4,5-trifluorophenyl)-1H-1,2,3-triazol-1-yl]-b-D-galactopyranoside]] | 0.3 |  |  | 0.05 |
| Cc1nccnc1[C@H](S[C@@H]1O[C@H](CO)[C@H](O)[C@H](n2cc(-c3cc(F)c(F)c(F)c3)nn2)[C@H]1O)C1(O)CCC(F)(F)CC1 [Example 2.44.129S., (2S,3R,4S,5R,6R)-2-(((S)-(4,4-Difluoro-1-hydroxycyclohexyl)(3-methylpyrazin-2-yl)methyl)thio)-6-(hydroxymethyl)-4-(4-(3,4,5-trifluorophenyl)-1H-1,2,3-triazol-1-yl)tetrahydro-2H-pyran-3,5-diol] | 6.3 | 1.48 |  |  |
| CCc1c(C(S[C@@H]2O[C@H](CO)[C@H](O)[C@H](n3cc(-c4cc(F)c(F)c(F)c4)nn3)[C@H]2O)C2(O)CCC(F)(F)CC2)noc1C1CC1 (stereo partly drawn) [Example 2.44.130., (2S,3R,4S,5R,6R)-2-(((5-Cyclopropyl-4-ethylisoxazol-3-yl)(4,4-difluoro-1-hydroxycyclohexyl)methyl)thio)-6-(hydroxymethyl)-4-(4-(3,4,5-trifluorophenyl)-1H-1,2,3-triazol-1-yl)tetrahydro-2H-pyran-3,5-diol] | 0.13 | 0.06 |  |  |
| CCc1c([C@@H](S[C@@H]2O[C@H](CO)[C@H](O)[C@H](n3cc(-c4cc(F)c(F)c(F)c4)nn3)[C@H]2O)C2(O)CCC(F)(F)CC2)noc1C1CC1 [Example 2.44.130R., (2S,3R,4S,5R,6R)-2-(((R)-(5-Cyclopropyl-4-ethylisoxazol-3-yl)(4,4-difluoro-1-hydroxycyclohexyl)methyl)thio)-6-(hydroxymethyl)-4-(4-(3,4,5-trifluorophenyl)-1H-1,2,3-triazol-1-yl)tetrahydro-2H-pyran-3,5-diol] | 0.16 | 0.02 |  |  |

From patent publication US12404295B2, “(Hetero)aryl-methyl-thio-beta-D-galactopyranoside derivatives” (Idorsia Pharmaceuticals Ltd, priority 2019, dated 2025)
